Biological target: T1, human TRPV4 (Homo sapiens, UniProt Q9HBA0)
T1 construct: expressed in transfected cells; host or cells: BHK/AC9 cells transduced with BacMam virus
Assay: FLIPR assay for hTRPV4 expressed in BHK cells: inhibition of Agonist Compound-induced calcium signal
Format: cell-based
Details: hTRPV4 in BHK/AC9 cells, FLIPR calcium signal, agonist at EC80; reported as range class; read-out: IC50
Procedure: FLIPR Assay for hTRPV4 Expressed in BHK Cells:
TRPV4 channel activation results in an influx of divalent and monovalent cations including calcium. The resulting changes in intracellular calcium were monitored using a calcium specific fluorescent dye Fluo-4 (MDS Analytical Technologies). BHK/AC9 cells transduced with BacMam virus expressing the human TRPV4 gene at a MOI of 78 were plated in a 384 well poly-D lysine coated plate (15,000 cells/well in 50 μL culture medium containing DMEM/F12 with 15 mM HEPES, 10% FBS, 1% Penicillin-Streptomycin and 1% L-glutamine). Cells were incubated for 24 hours at 37° C. and 5% CO2. Culture medium was then aspirated using a Tecan plate-washer and replaced with 20 μL/well of dye loading buffer: HBSS, 500 μM Brilliant Black (MDS Analytical Technologies), and 2 μM Fluo-4 AM. Dye loaded plates were then incubated in the dark at room temperature for 1-1.5 hours.

T1 sequence (Q9HBA0 whole entry): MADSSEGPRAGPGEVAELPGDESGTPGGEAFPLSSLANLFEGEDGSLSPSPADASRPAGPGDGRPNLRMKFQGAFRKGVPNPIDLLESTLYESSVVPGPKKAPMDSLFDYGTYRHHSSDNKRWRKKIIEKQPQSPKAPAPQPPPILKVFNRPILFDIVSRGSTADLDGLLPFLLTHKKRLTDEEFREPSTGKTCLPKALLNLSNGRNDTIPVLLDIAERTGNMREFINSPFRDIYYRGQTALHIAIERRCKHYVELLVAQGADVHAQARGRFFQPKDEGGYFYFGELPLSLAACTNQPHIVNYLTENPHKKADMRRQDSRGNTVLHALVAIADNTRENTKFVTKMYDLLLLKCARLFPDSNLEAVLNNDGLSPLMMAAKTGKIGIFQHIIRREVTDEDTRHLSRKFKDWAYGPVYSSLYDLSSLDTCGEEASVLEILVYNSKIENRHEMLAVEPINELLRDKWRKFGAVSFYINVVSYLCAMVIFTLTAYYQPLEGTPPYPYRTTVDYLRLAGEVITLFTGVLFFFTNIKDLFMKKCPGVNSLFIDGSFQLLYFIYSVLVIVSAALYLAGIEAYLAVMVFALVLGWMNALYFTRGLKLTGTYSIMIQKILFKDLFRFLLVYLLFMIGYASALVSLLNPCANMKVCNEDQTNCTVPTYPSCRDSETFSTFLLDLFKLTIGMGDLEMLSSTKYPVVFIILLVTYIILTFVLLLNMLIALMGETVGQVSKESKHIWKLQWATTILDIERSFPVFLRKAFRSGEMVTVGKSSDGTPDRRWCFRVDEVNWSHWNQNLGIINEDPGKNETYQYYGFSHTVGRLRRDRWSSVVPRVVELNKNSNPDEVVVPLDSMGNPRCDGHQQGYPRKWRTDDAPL

SMILES | IC50 [µM]
N#Cc1ccc(O[C@H]2CN(S(=O)(=O)c3ccc(Cl)cn3)C[C@@]2(O)CO)c2ccccc12 [Example 57, 4-(((3S,4R)-1-((5-chloropyridin-2-yl)sulfonyl)-4-hydroxy-4-(hydroxymethyl)pyrrolidin-3-yl)oxy)-1-naphthonitrile] | 0.01 to 0.1
N#Cc1ccc(O[C@H]2CN(S(=O)(=O)c3ccc(Cl)cn3)C[C@@]2(O)CO)cc1F [Example 58, 4-(((3S,4R)-1-((5-chloropyridin-2-yl)sulfonyl)-4-hydroxy-4-(hydroxymethyl)pyrrolidin-3-yl)oxy)-2-fluorobenzonitrile] | 0.01 to 0.1
N#Cc1ccc(O[C@H]2CN(S(=O)(=O)c3ccc(Cl)c4nonc34)C[C@@]2(O)CO)cc1F [Example 59, 4-(((3S,4R)-1-((7-chlorobenzo[c][1,2,5]oxadiazol-4-yl)sulfonyl)-4-hydroxy-4-(hydroxymethyl)pyrrolidin-3-yl)oxy)-2-fluorobenzonitrile] | 0.01 to 0.1
N#Cc1ccc(O[C@H]2CN(S(=O)(=O)c3ccccc3C#N)C[C@@]2(O)CO)cc1F [Example 61, 4-(((3S,4R)-1-((2-cyanophenyl)sulfonyl)-4-hydroxy-4-(hydroxymethyl)pyrrolidin-3-yl)oxy)-2-fluorobenzonitrile] | 0.0001 to 0.01
N#Cc1ccc(O[C@H]2CN(S(=O)(=O)c3cccnc3C#N)C[C@@]2(O)CO)cc1F [Example 62, 3-(((3R,4S)-4-(4-cyano-3-fluorophenoxy)-3-hydroxy-3-(hydroxymethyl)pyrrolidin-1-yl)sulfonyl)picolinonitrile] | 0.0001 to 0.01
N#Cc1ccc(O[C@H]2CN(S(=O)(=O)c3ccc(C(F)(F)F)cc3Cl)C[C@@]2(O)CO)cc1F [Example 63, 4-(((3S,4R)-1-((2-chloro-4-(trifluoromethyl)phenyl)sulfonyl)-4-hydroxy-4-(hydroxymethyl)pyrrolidin-3-yl)oxy)-2-fluorobenzonitrile] | 0.0001 to 0.01
COc1ccc(S(=O)(=O)N2C[C@H](Oc3ccc(C#N)c(F)c3)[C@](O)(CO)C2)c(Br)c1 [Example 64, 4-(((3S,4R)-1-((2-bromo-4-methoxyphenyl)sulfonyl)-4-hydroxy-4-(hydroxymethyl)pyrrolidin-3-yl)oxy)-2-fluorobenzonitrile] | 0.01 to 0.1
N#Cc1ccc(O[C@H]2CN(S(=O)(=O)c3ccc(OC(F)(F)F)cc3Br)C[C@@]2(O)CO)cc1F [Example 65, 4-(((3S,4R)-1-((2-bromo-4-(trifluoromethoxy)phenyl)sulfonyl)-4-hydroxy-4-(hydroxymethyl)pyrrolidin-3-yl)oxy)-2-fluorobenzonitrile] | 0.0001 to 0.01
N#Cc1ccc(O[C@H]2CN(S(=O)(=O)c3ccc(OC(F)(F)F)cc3Cl)C[C@@]2(O)CO)cc1F [Example 66, 4-(((3S,4R)-1-((2-chloro-4-(trifluoromethoxy)phenyl)sulfonyl)-4-hydroxy-4-(hydroxymethyl)pyrrolidin-3-yl)oxy)-2-fluorobenzonitrile] | 0.01 to 0.1
N#Cc1ccc(O[C@H]2CN(S(=O)(=O)c3ccc(Br)cc3C#N)C[C@@]2(O)CO)cc1F [Example 67, 4-(((3S,4R)-1-((4-bromo-2-cyanophenyl)sulfonyl)-4-hydroxy-4-(hydroxymethyl)pyrrolidin-3-yl)oxy)-2-fluorobenzonitrile] | 0.0001 to 0.01
N#Cc1ccc(S(=O)(=O)N2C[C@H](Oc3ccc(C#N)c(F)c3)[C@](O)(CO)C2)c(C(F)(F)F)c1 [Example 68, 4-(((3S,4R)-1-((4-cyano-2-(trifluoromethyl)phenyl)sulfonyl)-4-hydroxy-4-(hydroxymethyl)pyrrolidin-3-yl)oxy)-2-fluorobenzonitrile] | 0.01 to 0.1
N#Cc1ccc(O[C@H]2CN(S(=O)(=O)c3ccc(C(F)(F)F)cc3C#N)C[C@@]2(O)CO)cn1 [Example 69, 5-(((3S,4R)-1-((2-cyano-4-(trifluoromethyl)phenyl)sulfonyl)-4-hydroxy-4-(hydroxymethyl)pyrrolidin-3-yl)oxy)picolinonitrile] | 0.01 to 0.1
N#Cc1ccc(O[C@H]2CN(S(=O)(=O)c3ccc(C(F)(F)F)cc3)C[C@@]2(O)CO)cc1F [Example 70, 2-fluoro-4-(((3S,4R)-4-hydroxy-4-(hydroxymethyl)-1-((4-(trifluoromethyl)phenyl)sulfonyl)pyrrolidin-3-yl)oxy)benzonitrile] | 0.01 to 0.1
N#Cc1ccc(S(=O)(=O)N2C[C@H](Oc3ccc(C#N)c(F)c3)[C@](O)(CO)C2)cc1 [Example 71, 4-(((3S,4R)-1-((4-cyanophenyl)sulfonyl)-4-hydroxy-4-(hydroxymethyl)pyrrolidin-3-yl)oxy)-2-fluorobenzonitrile] | 0.01 to 0.1
CC(=O)c1ccc(S(=O)(=O)N2C[C@H](Oc3ccc(C#N)c(F)c3)[C@](O)(CO)C2)c(C#N)c1 [Example 72, 4-(((3S,4R)-1-((4-acetyl-2-cyanophenyl)sulfonyl)-4-hydroxy-4-(hydroxymethyl)pyrrolidin-3-yl)oxy)-2-fluorobenzonitrile] | 0.01 to 0.1
N#Cc1ccc(O[C@H]2CN(S(=O)(=O)c3ccc(Cl)cc3Cl)C[C@@]2(O)CO)cn1 [Example 73, 5-(((3S,4R)-1-((2,4-dichlorophenyl)sulfonyl)-4-hydroxy-4-(hydroxymethyl)pyrrolidin-3-yl)oxy)picolinonitrile] | 0.01 to 0.1
N#Cc1ccc(O[C@H]2CN(S(=O)(=O)c3ccc(C(F)(F)F)cc3Cl)C[C@@]2(O)CO)cn1 [Example 74, 5-(((3S,4R)-1-((2-chloro-4-(trifluoromethyl)phenyl)sulfonyl)-4-hydroxy-4-(hydroxymethyl)pyrrolidin-3-yl)oxy)picolinonitrile] | 0.01 to 0.1
Cc1ccc(S(=O)(=O)N2C[C@H](Oc3ccc(C#N)nc3)[C@](O)(CO)C2)c(Cl)c1 [Example 75, 5-(((3S,4R)-1-((2-chloro-4-methylphenyl)sulfonyl)-4-hydroxy-4-(hydroxymethyl)pyrrolidin-3-yl)oxy)picolinonitrile] | 0.01 to 0.1
N#Cc1ccc(O[C@H]2CN(S(=O)(=O)c3c(Cl)cc(Cl)cc3Cl)C[C@@]2(O)CO)cn1 [Example 76, 5-(((3S,4R)-4-hydroxy-4-(hydroxymethyl)-1-((2,4,6-trichlorophenyl)sulfonyl)pyrrolidin-3yl)oxy)picolinonitrile] | 0.01 to 0.1
N#Cc1ccc(O[C@H]2CN(S(=O)(=O)c3c(Cl)cc(Cl)cc3Cl)C[C@@]2(O)CO)cc1F [Example 77, 2-fluoro-4-(((3S,4R)-4-hydroxy-4-(hydroxymethyl)-1-((2,4,6-trichlorophenyl)sulfonyl)pyrrolidin-3-yl)oxy)benzonitrile] | 0.01 to 0.1
Cc1ccc(S(=O)(=O)N2C[C@H](Oc3ccc(C#N)c(F)c3)[C@](O)(CO)C2)c(Cl)c1 [Example 78, 4-(((3S,4R)-1-((2-chloro-4-methylphenyl)sulfonyl)-4-hydroxy-4-(hydroxymethyl)pyrrolidin-3-yl)oxy)-2-fluorobenzonitrile] | 0.0001 to 0.01
N#Cc1ccc(S(=O)(=O)N2C[C@H](Oc3ccc(C#N)c(F)c3)[C@](O)(CO)C2)cn1 [Example 79, 5-(((3R,4S)-4-(4-cyano-3-fluorophenoxy)-3-hydroxy-3-(hydroxymethyl)pyrrolidin-1-yl)sulfonyl)picolinonitrile] | 0.01 to 0.1
Cc1cc(C#N)ccc1S(=O)(=O)N1C[C@H](Oc2ccc(C#N)c(F)c2)[C@](O)(CO)C1 [Example 80, 4-(((3S,4R)-1-((4-cyano-2-methylphenyl)sulfonyl)-4-hydroxy-4-(hydroxymethyl)pyrrolidin-3-yl)oxy)-2-fluorobenzonitrile] | 0.0001 to 0.01
Cc1cc(C(F)(F)F)ccc1S(=O)(=O)N1C[C@H](Oc2ccc(C#N)c(F)c2)[C@](O)(CO)C1 [Example 81, 2-fluoro-4-(((3S,4R)-4-hydroxy-4-(hydroxymethyl)-1-((2-methyl-4-(trifluoromethyl)phenyl)sulfonyl)pyrrolidin-3-yl)oxy)benzonitrile] | 0.01 to 0.1
N#Cc1ccc(S(=O)(=O)N2C[C@H](Oc3cc(F)c(C#N)cc3F)[C@](O)(CO)C2)cn1 [Example 82, 5-(((3R,4S)-4-(4-cyano-2,5-difluorophenoxy)-3-hydroxy-3-(hydroxymethyl)pyrrolidin-1-yl)sulfonyl)picolinonitrile] | 0.01 to 0.1
Cc1nc(C(F)(F)F)ccc1S(=O)(=O)N1C[C@H](Oc2ccc(C#N)c(F)c2)[C@](O)(CO)C1 [Example 83, 2-fluoro-4-(((3S,4R)-4-hydroxy-4-(hydroxymethyl)-1-((2-methyl-6-(trifluoromethyl)pyridin-3-yl)sulfonyl)pyrrolidin-3-yl)oxy)benzonitrile] | 0.01 to 0.1
N#Cc1ccc(O[C@H]2CN(S(=O)(=O)c3ccc(C(F)(F)F)cn3)C[C@@]2(O)CO)cc1F [Example 84, 2-fluoro-4-(((3S,4R)-4-hydroxy-4-(hydroxymethyl)-1-((5-(trifluoromethyl)pyridin-2-yl)sulfonyl)pyrrolidin-3-yl)oxy)benzonitrile] | 0.01 to 0.1
N#Cc1ccc(O[C@H]2CN(S(=O)(=O)c3ccccc3Cl)C[C@@]2(O)CO)cc1F [Example 85, 4-(((3S,4R)-1-((2-chlorophenyl)sulfonyl)-4-hydroxy-4-(hydroxymethyl)pyrrolidin-3-yl)oxy)-2-fluorobenzonitrile] | 0.01 to 0.1
N#Cc1ccc(O[C@H]2CN(S(=O)(=O)c3ccc(Cl)s3)C[C@@]2(O)CO)cc1F [Example 86, 4-(((3S,4R)-1-((5-chlorothiophen-2-yl)sulfonyl)-4-hydroxy-4-(hydroxymethyl)pyrrolidin-3-yl)oxy)-2-fluorobenzonitrile] | 0.01 to 0.1
